Results reported in patent US8877801B2, “Compounds and compositions as selective estrogen receptor degraders” (Novartis AG, priority 2013, dated 2014).

Target: T1, ER (Homo sapiens, UniProt P03372)
T1 construct: transfected in MCF7 cells (containing endogenous ER); endogenous in cells; host or cells: MCF7 cells
T1 sequence (P03372 1-595): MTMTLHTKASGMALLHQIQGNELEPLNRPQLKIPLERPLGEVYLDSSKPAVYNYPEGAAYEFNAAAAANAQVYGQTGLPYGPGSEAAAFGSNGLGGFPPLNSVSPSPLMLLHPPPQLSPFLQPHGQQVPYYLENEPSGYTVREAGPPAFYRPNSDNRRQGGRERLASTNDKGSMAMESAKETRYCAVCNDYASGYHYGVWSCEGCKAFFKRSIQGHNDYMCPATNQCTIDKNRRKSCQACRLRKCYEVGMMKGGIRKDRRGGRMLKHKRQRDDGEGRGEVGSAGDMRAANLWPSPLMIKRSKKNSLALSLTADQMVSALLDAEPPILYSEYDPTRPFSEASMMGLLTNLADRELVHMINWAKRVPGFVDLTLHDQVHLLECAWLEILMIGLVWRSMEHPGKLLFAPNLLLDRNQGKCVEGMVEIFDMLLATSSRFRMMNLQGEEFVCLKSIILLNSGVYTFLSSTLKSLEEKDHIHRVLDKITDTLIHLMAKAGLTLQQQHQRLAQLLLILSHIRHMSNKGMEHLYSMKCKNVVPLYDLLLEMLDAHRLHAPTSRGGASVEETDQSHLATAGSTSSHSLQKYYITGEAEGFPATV
Assay: ER transcription assay (MCF7 cells), ERE-luciferase reporter
Format: cell-based
Settings: MCF7 cells, ER reporter gene, 0.1 nM 17β estradiol, 24 hours; read-out: MCF7 IC50 (inflection point of the inhibition of transcription in MCF7 cells)
Excerpt: ER Transcription Assay (MCF7 Cells)
The ER transcription assay is a reporter assay that is based on the ability of ER to induce transcription from a luciferase reporter gene containing estrogen response elements (EREs) in the promoter/enhancer region. When the reporter gene is transfected in MCF7 cells (containing endogenous ER), transcription is reflected by the level of luciferase expression.
A day before transfection, cells are split into a T75 flask at a cell density of 300,000 cells/mL (10 mL total) and allowed to attach overnight in a humidified CO2 incubator at 37° C.
Approximately 20 ug DNA is mixed in OptiMEM (Invitrogen) to a total volume of 650 μL. Following incubation, the OptiMEM-DNA mixture is added to the OptiMEM-Lipofectin mix and incubated for 15 minutes at 37° C. The DNA-Lipofectin mixture is then added directly to the T75 flask and the flask is returned to the incubator.
After overnight incubation, compound is added to individual wells of a 96-well plate in a 10 μL volume of media at 10× concentration along with 17β estradiol whose final concentration is 0.1 nM. Normally, DMSO (used as a vehicle) is included to achieve a final concentration of 0.1% when added to the cells. Transfected cells are trypsinized, resuspended in DMEM/F12/10% charcoal-stripped serum and added to the 96-well plate at 25,000 cells/well in 90 μL of media. The plate is then returned to the incubator for 24 hours.
After incubation with compounds for 24 hours, Firefly and Renilla luciferase activities are measured to determine ER transcriptional activity. Media is removed from 96-well plates by decanting and blotting on paper towels.
One second total read time after a one second delay.
One second total read time after one second delay. If Firefly luciferase signal is high, Renilla assay must be done an hour after the Firefly assay due to incomplete squelching of Firefly signal.
The data describing the antagonist and degradation properties for the examples is compiled in table 10. The column titled MCF7 IC50 reports the inflection point of the inhibition of transcription in MCF7 cells as described above. Percentage ERα remaining reports the remaining ERα protein measured at 10 μM concentration of the ligand as described above. The column ERα IC50 reports the inflection point of the degradation in response to the ligand concentration.

SMILES | IC50 [nM]
CC(C)(C)c1ccccc1-c1sc2cc(O)ccc2c1Oc1ccc(/C=C/C(=O)O)cc1 [Example 20, (E)-3-(4-((2-(2-(tert-butyl)phenyl)-6-hydroxybenzo[b]-thiophen-3-yl)oxy)phenyl)-acrylic acid] | 36
Cc1nnc(/C=C/c2ccc(Oc3c(-c4ccc(F)cc4C)sc4cc(O)ccc34)cc2)o1 [Example 46, (E)-2-(4-fluoro-2-methylphenyl)-3-(4-(2-(5-methyl-1,3,4-oxadiazol-2-yl)vinyl)phenoxy)benzo[b]thiophen-6-ol] | 108
Cc1cc(C)cc(-c2sc3cc(O)ccc3c2Oc2ccc(/C=C/C(=O)O)cc2)c1 [Example 23, (E)-3-(4-((2-(3,5-dimethylphenyl)-6-hydroxybenzo[b] - thiophen-3-yl)oxy)phenyl)-acrylic acid] | 748
O=C(O)/C=C/c1ccc(Oc2c(-c3ccc(C(F)(F)F)cc3C(F)(F)F)sc3cc(O)ccc23)cc1 [Example 11, (E)-3-(4-((2-(2,4-bis(trifluoromethyl)-phenyl)-6-hydroxy-benzo[b]thiophen-3-yl)oxy)phenyl)-acrylic acid] | 53
O=C(O)/C=C/c1ccc(Oc2c(-c3ccc(O)cc3)sc3cc(O)ccc23)cn1 [Example 29, (E)-3-(5-((6-hydroxy-2-(4-hydroxyphenyl)benzo[b]thiophen-3-yl)oxy)pyridin-2-yl)acrylic acid] | 7750
Cc1cc(F)ccc1-c1sc2cc(O)ccc2c1Oc1ccc(/C=C/c2nnnn2C)cc1 [Example 51, (E)-2-(4-fluoro-2-methylphenyl)-3-(4-(2-(1-methyl-1H-tetrazol-5-yl)vinyl)phenoxy)-benzo[b]thiophen-6-ol] | 61
Cn1nnnc1/C=C/c1ccc(Oc2c(-c3ccc(O)cc3)sc3cc(O)ccc23)cc1 [Example 54, (E)-2-(4-hydroxyphenyl)-3-(4-(2-(1-methyl-1H-tetrazol-5-yl)vinyl)-phenoxy)benzo[b]thiophen-6-ol] | 1
Cc1cccc(-c2sc3cc(O)ccc3c2Oc2ccc(/C=C/C(=O)O)cc2)c1C [Example 13, (E)-3-(4-((2-(2,3-dimethylphenyl)-6-hydroxybenzo[b]-thiophen-3-yl)oxy)phenyl)-acrylic acid] | 151
O=C(/C=C/c1ccc(Oc2c(-c3ccc(F)cc3)sc3cc(O)ccc23)cc1)NCCC(F)(F)F [Example 33, (E)-3-(4-((2-(4-fluorophenyl)-6-hydroxybenzo[b]-thiophen-3-yl)oxy)phenyl)-N-(3,3,3-trifluoropropyl)-acrylamide] | 73
Cc1cc(F)ccc1-c1sc2cc(O)ccc2c1Oc1ccc(/C=C/c2n[nH]c(=O)o2)cc1 [Example 48, (E)-5-(4-((2-(4-fluoro-2-methylphenyl)-6-hydroxybenzo[b]thiophen-3-yl)oxy)styryl)-1,3,4-oxadiazol-2(3H)-one] | 422
O=C(O)/C=C/c1ccc(Oc2c(-c3cccc(F)c3)sc3cc(O)ccc23)cc1 [Example 7, (E)-3-(4-((2-(3-fluorophenyl)-6-hydroxybenzo[b]-thiophen-3-yl)oxy)phenyl)-acrylic acid] | 713
CC(C)(C)c1ccc(-c2sc3cc(O)ccc3c2Oc2ccc(/C=C/C(=O)O)cc2)cc1 [Example 22, (E)-3-(4-((2-(4-(tert-butyl)phenyl)-6-hydroxybenzo[b]-thiophen-3-yl)oxy)phenyl)-acrylic acid] | 853
O=C(O)/C=C/c1ccc(Oc2c(-c3ccccc3Cl)sc3cc(O)ccc23)cc1 [Example 9, (E)-3-(4-((2-(2-chlorophenyl)-6-hydroxybenzo[b]-thiophen-3-yl)oxy)phenyl)-acrylic acid] | 407
CNC(=O)/C=C/c1ccc(Oc2c(-c3ccc(C(F)(F)F)cc3)sc3cc(O)ccc23)cc1 [Example 63, (E)-3-(4-((6-hydroxy-2-(4-(trifluoromethyl)-phenyl)benzo[b]thiophen-3-yl)oxy)phenyl)-N-methylacrylamide] | 185
O=C(O)/C=C/c1ccc(Oc2c(-c3ccc(O)cc3)sc3c(F)c(O)ccc23)cc1 [Example 39, (E)-3-(4-((7-fluoro-6-hydroxy-2-(4-hydroxyphenyl)benzo[b]-thiophen-3-yl)oxy)phenyl)acrylic acid] | 653
CC(=O)c1ccccc1-c1sc2cc(O)ccc2c1Oc1ccc(/C=C/C(=O)O)cc1 [Example 19, (E)-3-(4-((2-(2-acetylphenyl)-6-hydroxybenzo[b]-thiophen-3-yl)oxy)phenyl)-acrylic acid] | 218
O=C(O)/C=C/c1ccc(Oc2c(-c3ccccc3)sc3cc(O)ccc23)cc1 [Example 60, (E)-3-(4-((6-hydroxy-2-phenylbenzo[b]thiophen-3-yl)oxy)phenyl)-acrylic acid] | 2310
Cn1nnnc1/C=C/c1ccc(Oc2c(-c3ccc(F)cc3)sc3cc(O)ccc23)cc1 [Example 52, (E)-2-(4-fluorophenyl)-3-(4-(2-(1-methyl-1H-tetrazol-5-yl)vinyl)phenoxy)benzo [b]thiophen-6-ol] | 5980
Cc1cc(C(F)(F)F)ccc1-c1sc2cc(O)ccc2c1Oc1ccc(/C=C/C(=O)O)cc1 [Example 10, (E)-3-(4-((6-hydroxy-2-(2-methyl-4-(tri-fluoromethyl)phenyl)-benzo[b]thiophen-3-yl)oxy)phenyl)acrylic acid] | 207
CCOC(=O)/C=C/c1ccc(Oc2c(-c3ccc(O)cc3)sc3cc(O)ccc23)c(C)c1 [Example 35, (E)-ethyl 3-(4-((6-hydroxy-2-(4-hydroxyphenyl)benzo[b]-thiophen-3-yl)oxy)-3-methylphenyl)acrylate] | 103
CCOC(=O)/C=C/c1ccc(Oc2c(-c3ccc(O)cc3)sc3cc(O)ccc23)cc1C [Example 34, (E)-ethyl 3-(4-((6-hydroxy-2-(4-hydroxyphenyl)benzo[b]-thiophen-3-yl)oxy)-2-methylphenyl)acrylate] | 48
O=C(O)CCc1ccc(Oc2c(-c3ccc(O)cc3)sc3cc(O)ccc23)cc1 [Example 1, 3-(4-((6-hydroxy-2-(4-hydroxyphenyl)benzo[b]thiophen-3-yl)oxy)phenyl)propanoic acid] | 457
Cc1noc(C)c1-c1sc2cc(O)ccc2c1Oc1ccc(/C=C/C(=O)O)cc1 [Example 15, (E)-3-(4-((2-(3,5-dimethylisoxazol-4-yl)-6-hydroxybenzo-[b]thiophen-3-yl)oxy)-phenyl)acrylic acid] | 404
Cc1cc(F)ccc1-c1sc2cc(O)ccc2c1Oc1ccc(/C=C/C(=O)NO)cc1 [Example 32, (E)-3-(4-((2-(4-fluoro-2-methylphenyl)-6-hydroxybenzo[b]thiophen-3-yl)oxy)phenyl)-N-hydroxyacrylamide] | 15
Cc1cc(Oc2c(-c3ccc(O)cc3)sc3cc(O)ccc23)ccc1/C=C/C(=O)O [Example 56, (E)-3-(4-((6-hydroxy-2-(4-hydroxyphenyl)-benzo[b]thiophen-3-yl)oxy)-2-methylphenyl)-acrylic acid] | 1270
Cc1c(O)cccc1-c1sc2cc(O)ccc2c1Oc1ccc(/C=C/C(=O)O)cc1 [Example 16, (E)-3-(4-((6-hydroxy-2-(3-hydroxy-2-methyl-phenyl)benzo[b]-thiophen-3-yl)oxy)phenyl)-acrylic acid] | 128
O=c1nc(/C=C/c2ccc(Oc3c(-c4ccc(O)cc4)sc4cc(O)ccc34)cc2)cc(C(F)(F)F)[nH]1 [Example 50, (E)-4-(4-((6-hydroxy-2-(4-hydroxyphenyl)-benzo[b]thiophen-3-yl)oxy)styryl)-6-(trifluoromethyl)-pyrimidin-2(1H)-one] | 154
O=C(O)/C=C/c1ccc(Oc2c(-c3ccccc3[N+](=O)[O-])sc3cc(O)ccc23)cc1 [Example 21, (E)-3-(4-((6-hydroxy-2-(2-nitrophenyl)-benzo[b]thiophen-3-yl)oxy)phenyl)-acrylic acid] | 313
